According to patent US11180474B2 (BRISTOL-MYERS SQUIBB COMPANY, priority 2016, dated 2021):

Experiments:
human TLR9 = molecular target: T1, human TLR9 (Homo sapiens, UniProt Q9NR96); assay: TLR9 inhibition reporter assay (HEK-Blue cells, SEAP reporter, ODN2006 stimulation); type: cell-based; conditions: HEK-Blue cells overexpressing human TLR9, ODN2006 5 nM
T1 construct: host or cells: HEK-Blue cells
T1 sequence (Q9NR96 26-1032): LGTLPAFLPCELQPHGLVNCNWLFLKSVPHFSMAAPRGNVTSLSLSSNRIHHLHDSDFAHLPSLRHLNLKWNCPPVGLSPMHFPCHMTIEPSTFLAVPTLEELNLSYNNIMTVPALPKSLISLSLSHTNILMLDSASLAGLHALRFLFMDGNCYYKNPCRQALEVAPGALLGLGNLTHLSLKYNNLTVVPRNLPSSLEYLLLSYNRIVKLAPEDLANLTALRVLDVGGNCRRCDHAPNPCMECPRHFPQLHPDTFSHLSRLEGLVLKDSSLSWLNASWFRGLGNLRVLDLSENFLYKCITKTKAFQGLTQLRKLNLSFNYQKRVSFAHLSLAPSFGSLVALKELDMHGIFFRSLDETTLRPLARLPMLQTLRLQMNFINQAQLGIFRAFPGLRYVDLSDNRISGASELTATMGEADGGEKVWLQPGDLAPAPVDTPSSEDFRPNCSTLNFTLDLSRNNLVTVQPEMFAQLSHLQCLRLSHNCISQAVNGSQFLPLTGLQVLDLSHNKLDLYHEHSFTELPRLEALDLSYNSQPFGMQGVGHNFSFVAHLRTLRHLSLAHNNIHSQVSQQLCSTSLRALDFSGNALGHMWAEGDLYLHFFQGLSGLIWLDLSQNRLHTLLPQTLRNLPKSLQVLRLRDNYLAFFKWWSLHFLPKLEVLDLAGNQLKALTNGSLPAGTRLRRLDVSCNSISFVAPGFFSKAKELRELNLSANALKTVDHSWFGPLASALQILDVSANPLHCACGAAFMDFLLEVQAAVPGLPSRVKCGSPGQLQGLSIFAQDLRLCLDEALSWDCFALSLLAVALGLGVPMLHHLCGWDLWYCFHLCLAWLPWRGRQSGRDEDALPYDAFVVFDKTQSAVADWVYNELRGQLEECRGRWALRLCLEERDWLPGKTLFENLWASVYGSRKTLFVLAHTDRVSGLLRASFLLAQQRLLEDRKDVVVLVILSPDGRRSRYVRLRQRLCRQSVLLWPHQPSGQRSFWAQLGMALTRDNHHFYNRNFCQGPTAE
Summary of the method: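 Agonists used: gardiquimod 7.5 μM (TLR7), R848 15.9 μM (TLR8), ODN2006 5 nM (TLR9), added after 30 min room-temperature compound pre-treatment (0.05 nM–50 μM) of receptor-overexpressing HEK-Blue cells. SEAP reporter (NF-κB/AP-1 driven) read after 22 h at 37 °C; inhibition scaled between agonist+DMSO and reference-inhibitor wells.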

human TLR7 = molecular target: T2, human TLR7 (Homo sapiens, UniProt Q9NYK1); assay: TLR7 inhibition reporter assay (HEK-Blue cells, SEAP reporter, gardiquimod stimulation); type: cell-based; conditions: HEK-Blue cells overexpressing human TLR7, gardiquimod 7.5 μM
T2 construct: host or cells: HEK-Blue cells
T2 sequence (Q9NYK1 27-1049): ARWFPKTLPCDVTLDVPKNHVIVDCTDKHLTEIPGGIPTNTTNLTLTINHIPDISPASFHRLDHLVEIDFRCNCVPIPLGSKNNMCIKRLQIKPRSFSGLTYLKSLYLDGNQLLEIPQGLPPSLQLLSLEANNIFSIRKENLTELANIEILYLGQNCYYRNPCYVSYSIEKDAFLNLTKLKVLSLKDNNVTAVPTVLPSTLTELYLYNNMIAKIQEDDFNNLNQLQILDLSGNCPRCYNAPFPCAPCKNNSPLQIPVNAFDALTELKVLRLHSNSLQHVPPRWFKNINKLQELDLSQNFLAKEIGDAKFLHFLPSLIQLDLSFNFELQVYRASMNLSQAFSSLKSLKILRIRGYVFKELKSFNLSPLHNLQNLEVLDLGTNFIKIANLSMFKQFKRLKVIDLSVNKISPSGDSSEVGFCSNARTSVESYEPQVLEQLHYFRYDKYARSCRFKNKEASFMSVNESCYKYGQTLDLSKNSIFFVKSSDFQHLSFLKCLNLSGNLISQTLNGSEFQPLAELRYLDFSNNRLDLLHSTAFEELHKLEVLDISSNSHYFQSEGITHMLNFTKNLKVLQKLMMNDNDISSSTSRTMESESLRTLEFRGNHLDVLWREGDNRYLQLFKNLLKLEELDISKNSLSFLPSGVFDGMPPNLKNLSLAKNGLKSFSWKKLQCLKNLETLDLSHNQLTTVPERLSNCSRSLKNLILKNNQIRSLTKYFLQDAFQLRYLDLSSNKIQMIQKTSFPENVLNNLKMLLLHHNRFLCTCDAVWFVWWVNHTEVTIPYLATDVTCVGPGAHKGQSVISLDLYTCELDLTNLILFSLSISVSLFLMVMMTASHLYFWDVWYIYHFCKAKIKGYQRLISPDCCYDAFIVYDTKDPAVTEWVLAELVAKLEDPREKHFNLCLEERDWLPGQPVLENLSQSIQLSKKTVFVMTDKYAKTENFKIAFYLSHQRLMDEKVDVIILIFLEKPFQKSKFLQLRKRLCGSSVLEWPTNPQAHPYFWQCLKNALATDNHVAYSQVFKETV
Summary of the method: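 HEK-Blue reporter cells (15,000/well TLR7, 20,000 TLR8) exposed to compound over 0.05 nM–50 μM, agonist-stimulated (R848 for TLR8, gardiquimod for TLR7), 22 h at 37 °C, 5% CO2. SEAP read with HEK-Blue Detection; % inhibition relative to agonist-plus-DMSO and known-inhibitor controls.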

| Compound | IC50 (human TLR9) [nM] | IC50 (human TLR7) [nM] |
| --- | --- | --- |
| COc1ccc(-c2[nH]c3ccc(C4CCN(C(=O)CN(C)CCO)CC4)cc3c2C(C)C)cc1OC [Example 242, 1-(4-(2-(3,4-dimethoxyphenyl)-3-isopropyl-1H-indol-5-yl)piperidin-1-yl)-2-((2-hydroxyethyl)(methyl)amino)ethan-1-one] | 976 | 23 |
| COc1ccc(-c2[nH]c3ccc(C4CCN(C(=O)COC(C)C)CC4)cc3c2C(C)C)cc1OC [Example 314, 1-(4-(2-(3,4-dimethoxyphenyl)-3-isopropyl-1H-indol-5-yl)piperidin-1-yl)-2-isopropoxyethan-1-one] | 26600 | 284 |
| CCC(CO)NCC(=O)N1CCC(c2ccc3[nH]c(-c4ccc(OC)c(OC)c4)c(C(C)C)c3c2)CC1 (stereo not shown) [Example 233, 1-(4-(2-(3,4-dimethoxyphenyl)-3-isopropyl-1H-indol-5-yl)piperidin-1-yl)-2-((1-hydroxybutan-2-yl)amino)ethan-1-one] | 877 | 23 |
| COc1ccc(-c2[nH]c3ccc(C4CCN(C(=O)CN5CCN(C(C)C)CC5)CC4)cc3c2C(C)C)cc1OC [Example 240, 1-(4-(2-(3,4-dimethoxyphenyl)-3-isopropyl-1H-indol-5-yl)piperidin-1-yl)-2-(4-isopropylpiperazin-1-yl)ethan-1-one] | 1390 | 11 |
| COc1ccc(-c2[nH]c3ccc(C4CCN(CC(=O)N(C)C)CC4)cc3c2C(C)C)cc1OC [Example 312, 2-(4-(2-(3,4-dimethoxyphenyl)-3-isopropyl-11H-indol-5-yl)piperidin-1-yl)-N,N-dimethylacetamide] | 1370 | 8 |
| COc1ccc(-c2[nH]c3ccc(C4CCN(Cc5cnn(C)c5)CC4)cc3c2C(C)C)cc1OC [Example 259, 2-(3,4-dimethoxyphenyl)-3-isopropyl-5-(1-((1-methyl-1H-pyrazol-4-yl)methyl)piperidin-4-yl)-1H-indole] | 2030 | 40 |
| COc1ccc(-c2[nH]c3ccc(C4CCN(C(=O)CN5CCC(O)CC5)CC4)cc3c2C(C)C)cc1OC [Example 238, 1-(4-(2-(3,4-dimethoxyphenyl)-3-isopropyl-1H-indol-5-yl)piperidin-1-yl)-2-(4-hydroxypiperidin-1-yl) ethan-1-one] | 1420 | 36 |
| COc1ccc(-c2[nH]c3ccc(C4CCN(Cc5cnc(C)[nH]5)CC4)cc3c2C(C)C)cc1OC [Example 266, 2-(3,4-dimethoxyphenyl)-3-isopropyl-5-(1-((2-methyl-1H-imidazol-5-yl)methyl)piperidin-4-yl)-1H-indole] | 1260 | 48 |
| COc1ccc(-c2[nH]c3ccc(C4CCN(C(=O)CN5CCC(N(C)C)CC5)CC4)cc3c2C(C)C)cc1OC [Example 244, 1-(4-(2-(3,4-dimethoxyphenyl)-3-isopropyl-1H-indol-5-yl)piperidin-1-yl)-2-(4-(dimethylamino)piperidin-1-yl)ethan-1-one] | 381 | 6 |
| COc1ccc(-c2[nH]c3ccc(C4CCN(C(=O)CNC5CCC(C(C)(C)O)CC5)CC4)cc3c2C(C)C)cc1OC (stereo not shown) [Example 245, 1-(4-(2-(3,4-dimethoxyphenyl)-3-isopropyl-1H-indol-5-yl)piperidin-1-yl)-2-((4-(2-hydroxypropan-2-yl)cyclohexyl)amino)ethan-1-one] | 1140 | 26 |
| COc1ccc(-c2[nH]c3ccc(C4CCN(Cc5nccn5C)CC4)cc3c2C(C)C)cc1OC [Example 262, 2-(3,4-dimethoxyphenyl)-3-isopropyl-5-(1-((1-methyl-1H-imidazol-2-yl)methyl)piperidin-4-yl)-1H-indole] | 2970 | 61 |
| COc1ccc(-c2[nH]c3ccc(C4CCN(C(=O)CN5CCC[C@H](C(=O)NCCNC(C)=O)C5)CC4)cc3c2C(C)C)cc1OC [Example 295, (S)—N-(2-acetamidoethyl)-1-(2-(4-(2-(3,4-dimethoxyphenyl)-3-isopropyl-1H-indol-5-yl)piperidin-1-yl)-2-oxoethyl) piperidine-3-carboxamide] | 5310 | 50 |

More lines, now with the values ahead:

| IC50 (human TLR9) [nM] | IC50 (human TLR7) [nM] | Compound |
| --- | --- | --- |
| 3940 | 47 | COc1ccc(-c2[nH]c3ccc(C4CCN(C(=O)CN5CCC[C@H](C(=O)NCC(N)=O)C5)CC4)cc3c2C(C)C)cc1OC [Example 298, (S)—N-(2-amino-2-oxoethyl)-1-(2-(4-(2-(3,4-dimethoxyphenyl)-3-isopropyl-1H-indol-5-yl)piperidin-1-yl)-2-oxoethyl)piperidine-3-carboxamide] |
| 2480 | 148 | COc1ccc(-c2[nH]c3ccc(C4CCN(C(=O)CN5CCC[C@@H](C(=O)N6C(C)CCC6C)C5)CC4)cc3c2C(C)C)cc1OC (stereo partly drawn) [Example 311, 1-(4-(2-(3,4-dimethoxyphenyl)-3-isopropyl-1H-indol-5-yl)piperidin-1-yl)-2-((3R)-3-(2,5-dimethylpyrrolidine-1-carbonyl)piperidin-1-yl)ethan-1-one] |
| 3120 | 66 | COc1ccc(-c2[nH]c3ccc(C4CCN(C(=O)CN5CCC[C@H](C(=O)N6CC[C@H](O)C6)C5)CC4)cc3c2C(C)C)cc1OC [Example 301, 1-(4-(2-(3,4-dimethoxyphenyl)-3-isopropyl-1H-indol-5-yl)piperidin-1-yl)-2-((S)-3-((S)-3-hydroxypyrrolidine-1-carbonyl)piperidin-1-yl)ethan-1-one] |
| 777 | 28 | COc1ccc(-c2[nH]c3ccc(C4CCN(C(=O)CN5CCC[C@H](C(=O)N6CCN(CCN7CCCC7)CC6)C5)CC4)cc3c2C(C)C)cc1OC [Example 293, (S)-1-(4-(2-(3,4-dimethoxyphenyl)-3-isopropyl-1H-indol-5-yl)piperidin-1-yl)-2-(3-(4-(2-(pyrrolidin-1-yl)ethyl)piperazine-1-carbonyl)piperidin-1-yl)ethan-1-one] |
| 5340 | 1740 | COc1ccc(-c2[nH]c3ccc(C4CCN(C(=O)CN5CCC[C@H](C(=O)N6CCN(c7cccc(C(F)(F)F)c7)CC6)C5)CC4)cc3c2C(C)C)cc1OC [Example 290, (S)-1-(4-(2-(3,4-dimethoxyphenyl)-3-isopropyl-1H-indol-5-yl)piperidin-1-yl)-2-(3-(4-(3-(trifluoromethyl)phenyl)piperazine-1-carbonyl)piperidin-1-yl)ethan-1-one] |
